Read-outs that look alike come from different tables or passages of the source.
Key:
[1] = tested on: MDCK1 (Madin–Darby canine kidney) cells; test: MTT antiproliferative assay, non-tumor MDCK1 cells; type: cell-based; conditions: Canis lupus familiaris, MDCK1, 72 h, mean ± SD of three independent experiments, normal cells
Procedure, shortened: (§1)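 72 h growth inhibition; cpds 10^−7–10^−4 M; DMEM/10% FBS (adherent) or RPMI/10% FBS (suspension), 37 °C/5% CO2; MTT 4 h; formazan in DMSO (adherent) or 10% SDS/0.01 M HCl (suspension); OD 595 nm; GI50 via variable-slope fit.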

human fibroblasts (BJ) = test: MTT antiproliferative assay, normal BJ fibroblasts; type: cell-based; conditions: Homo sapiens, Fibroblast, 72 h, MTT, mean ± SD of three independent experiments; normal cells
Procedure, shortened: as §1

[2] = tested on: HeLa (cervical adenocarcinoma) cells; test: MTT antiproliferative assay, HeLa; type: cell-based; conditions: Homo sapiens, 72 h, mean ± SD of three independent experiments
Procedure, shortened: as §1

[3] = tested on: CaCo-2 (colon adenocarcinoma) cells; test: MTT antiproliferative assay, CaCo-2; type: cell-based, human; conditions: Homo sapiens, Caco-2; 72 h, MTT, mean ± SD of three independent experiments
Procedure, shortened: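 CaCo-2 cells, plated at 2 × 10^4 cells/mL in DMEM with 10 % FBS at 37 °C/5% CO2, were treated 24 h later with five 10-fold dilutions (10^−7 to 10^−4 M) for 72 h. Viability was measured by MTT (4 h, formazan dissolved in DMSO, OD 595 nm) against background and untreated controls. GI50 came from log-concentration versus percent-inhibition fits.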

[4] = tested on: HuT78 (T-cell lymphoma) cells; test: MTT antiproliferative assay, HuT78; type: cell-based, human; conditions: for IC50: Homo sapiens, HuT78, 72 h, 72 h, MTT, mean ± SD of three independent experiments; for SI (BJ) HuT78: SI = IC50 BJ / IC50 HuT78; for SI (MDCK) HuT78: SI = IC50 MDCK1 / IC50 HuT78
Procedure, shortened: as §1

[5] = tested on: SW620 (colorectal adenocarcinoma, metastatic) cells; test: MTT antiproliferative assay, SW620; type: cell-based, human; conditions: Homo sapiens, SW-620
Description: (§2) The growth inhibition activity was assessed according to the slightly modified procedure performed at the National Cancer Institute, Developmental Therapeutics Program.
(§3) Examined compounds were dissolved in DMSO (1 × 10^−2 M). The experiments were carried out on seven human tumor cell lines and two normal cell lines. The following cell lines were used: HeLa (human cervical adenocarcinoma; purchased from ATCC), CaCo-2 (human colorectal adenocarcinoma), HuT78 (T-cell lymphoma), THP-1 (acute monocytic leukemia), SW620 (colorectal adenocarcinoma, metastatic), MDA-MB-231 (human breast adenocarcinoma), HL60 (promyelocytic leukemia cell line), foreskin fibroblast cells (BJ) and MDCK1 (Madine–Darby canine kidney fibroblast like cells). MDCK1 cells were used between 24 and 26 passages.
(§4) Adherent cells were cultured in the Dulbecco’s modified Eagle medium—DMEM (Gibco, EU) supplemented with 10 % heat-inactivated fetal bovine serum (FBS, Gibco, EU), 2 mM glutamine, and 100 U/0.1 mg penicillin/streptomycin. Cells on suspension were cultured in RPMI 1640 (Gibco, EU) medium supplemented with 10 % FBS (Gibco, EU), 2 mM glutamine, 1 mM sodium pyruvate, 10 mM HEPES. Cells were grown in humidified atmosphere under the conditions of 37 °C/5% of CO2 gas in the CO2 incubator (IGO 150 CELLlife^TM, JOUAN, Thermo Fisher Scientific, Waltham, MA, USA). A erythrosin B (Sigma-Aldrich, St. Louis, MO, USA) dye exclusion method was used to assess cell viability before plating.
(§5) Adherent cells (HeLa, CaCo-2, MCF-7 and MDCK-1) were plated in 96-well flat bottom plates (Greiner, Frickenhausen, Austria) at a concentration of 2 × 10^4 cells/mL. Suspension cells (THP-1 and HuT78) were plated in 96-well microtiter plates (Sarstead, Newton, USA) at a concentration of 1 × 10^5 cells/mL. Twenty-four hours later, cells were treated with test agents in […] 10-fold dilutions ([…] to 10^−4 M) and incubated for further 72 h. Working dilutions were freshly prepared on the day of testing. The solvent was also tested for eventual inhibitory activity by adjusting its concentration to be the same as in working concentrations. After 72 h of incubation, the cell growth rate was evaluated by performing the MTT assay, which detects dehydrogenase activity in viable cells. For this purpose, upon completion of the incubation period, growth medium was discarded and 50 μL of MTT was added to each well at a concentration of 5 mg/mL. After four hours of incubation at 37 °C, water insoluble MTT-formazan crystals were dissolved in 150 μL of dimethyl-sulfoxide (DMSO) for adherent cells, and in 10 % SDS with 0.01 M/L HCl for cells grown in suspension. The absorbance (OD, optical density) was measured on a microplate reader (iMark, BIO RAD, Hercules, CA, USA) at 595 nm.
(§6) Percent of life cells was calculated as follows: % = OD (sample)–OD (background)/OD (control)–OD (background) × 100.
(§7) Optical density (OD) of background for adherent cells is the OD of MTT solution and DMSO; OD (background) for suspension cells is OD of the culture medium with MTT and 10% SDS with 0.01 M/L HCl; OD (control) is the OD of the cells growth without tested compounds.
(§8) Calculation of GI50 value curves and QC analysis is performed by using the Excel tools and GraphPadPrism software (La Jolla, CA), v. 5.03. Briefly, individual concentration effect curves are generated by plotting the logarithm of the concentration of tested compounds(X) vs. corresponding percent inhibition values (Y) using least squares fit. The best fit GI50 values are calculated using Log (inhibitor) versus normalized response—Variable slope equation, where Y Ľ 100/(1 ţ 10 ((LogIC50 _ X) * HillSlope)). QC criteria parameters (Z0, S:B, R2, HillSlope) were checked for every GI50 curve.

[6] = tested on: MDA-MB-231 (human breast adenocarcinoma) cells; test: MTT antiproliferative assay, MDA-MB-231; type: cell-based; conditions: for IC50: Homo sapiens, MDA-MB-231, 72 h, MTT, mean ± SD of three independent experiments
Description: as §2, §3, §4, §5, §6, §7, §8

[7] = tested on: HL60 (promyelocytic leukemia) cells; test: MTT antiproliferative assay, HL60; type: cell-based, human; conditions: for IC50: Homo sapiens, HL-60, 72 h, MTT, mean ± SD of three independent experiments; for SI (MDCK) HL60: SI = IC50 MDCK1 / IC50 HL60
Description: as §2, §3, §4, §5, §6, §7, §8

[8] = tested on: THP1 (human monocytic leukemia) cells; test: MTT antiproliferative assay, THP1; type: cell-based; conditions: for IC50: Homo sapiens, THP-1, 72 h, MTT, mean ± SD of three independent experiments; for SI (MDCK) THP1: SI = IC50 MDCK1 / IC50 THP1
Description: as §2, §3, §4, §5, §6, §7, §8

[9] = 72 h, MTT, mean ± SD of three independent experiments, read-out: IC50 (µM) SW620

SMILES | IC50 [1] [µM] | IC50 (human fibroblasts (BJ)) [µM] | IC50 [2] [µM] | IC50 [3] [µM] | IC50 [4] [µM] | SI (BJ) HuT78 [4] | SI (MDCK) HuT78 [4] | IC50 [5, 9] [µM] | IC50 [6] [µM] | SI (BJ) MDA-MB-231 ([6]; SI = IC50 BJ / IC50 MDA-MB-231) | SI (MDCK) MDA-MB-231 ([6]; SI = IC50 MDCK1 / IC50 MDA-MB-231) | IC50 [7] [µM] | SI (BJ) HL60 ([7]; SI = IC50 BJ / IC50 HL60) | SI (MDCK) HL60 [7] | IC50 [8] [µM] | SI (BJ) THP1 ([8]; SI = IC50 BJ / IC50 THP1) | SI (MDCK) THP1 [8] | IC50 ([5]; span over SW620, MDA-MB-231, HL60, THP1, read-out: IC50 values on additional set of tumor cells) [µM] | melting point [°C]
O=C(COc1ccc(-c2nc3ccc(C4=NCCCN4)cc3[nH]2)cc1)c1ccccc1 [42a] | > 100 | > 100 | > 100 | > 100 | 7 ± 5.2 | 14.29 | 14.29 | > 100 | 76.3 ± 11.8 | 1.31 | 1.31 | 33.2 ± 1.8 | 3.01 | 3.01 | 44.5 ± 5.3 | 2.25 | 2.25 |  | 
Cl.c1cc(-c2nc3ccc(C4=NCCN4)cc3s2)ccc1OCc1c[nH]nn1 [36a, 2-(4-((1H-1,2,3-triazol-4-yl)methoxy)phenyl)-6-(4,5-dihydro-1H-imidazol-2-yl)benzothiazole hydrochloride] |  |  | 62.6 ± 22 | 24.8 ± 9.2 | 4.4 ± 3.9 |  | 7.23 | 5.6 ± 1.2 | 33 ± 4.9 |  |  | 18.8 ± 1.1 |  |  | 20.4 ± 3.3 |  |  | 5.6 to 33 | 218 to 221
Cl.Fc1cc(-c2nc3ccc(C4=NCCN4)cc3s2)ccc1OCc1cn(Cc2ccccc2)nn1 [37b, 2-(3-Fluoro-4-((1-benzyl-1H-1,2,3-triazol-4-yl)methoxy)phenyl)-6-(4,5-dihydro-1H-imidazol-2-yl)benzothiazole hydrochloride] | 2.4 ± 0.3 | 5.3 ± 2.9 | 4 ± 0.4 | 6.1 ± 2.7 | 2.1 ± 0.2 | 2.52 |  |  |  |  |  |  |  |  |  |  |  |  | > 240
Cl.Fc1cc(-c2nc3ccc(C4=NCCN4)cc3s2)ccc1OCc1c[nH]nn1 [36b, 2-(3-Fluoro-4-((1H-1,2,3-triazol-4-yl)methoxy)phenyl)-6-(4,5-dihydro-1H-imidazol-2-yl)benzothiazole hydrochloride] | 25.2 ± 1.3 | 32.6 ± 3.4 | 30 ± 1 | 38.3 ± 1.2 | 1.8 ± 0.4 |  | 14 |  |  |  |  |  |  |  |  |  |  |  | 234 to 237
c1ccc(COc2ccc(-c3nc4ccc(C5=NCCCN5)cc4[nH]3)cc2)nc1 [43a] | > 100 | 33 ± 20.3 | > 100 | > 100 | 28.6 ± 3.9 |  | 3.5 | > 100 | > 100 |  |  | 40.4 ± 12 |  | 2.48 | 29.7 ± 8.6 |  | 3.37 |  | 

From paper PMC9785280, “Synthesis, Antiproliferative Evaluation and QSAR Analysis of Novel Halogen- and Amidino-Substituted Benzothiazoles and Benzimidazoles” (International Journal of Molecular Sciences, 2022)
